Assay [1] deals with T1, Solute carrier family 22 member 12 (Homo sapiens, UniProt Q96S37).
T1 sequence (Q96S37 whole entry): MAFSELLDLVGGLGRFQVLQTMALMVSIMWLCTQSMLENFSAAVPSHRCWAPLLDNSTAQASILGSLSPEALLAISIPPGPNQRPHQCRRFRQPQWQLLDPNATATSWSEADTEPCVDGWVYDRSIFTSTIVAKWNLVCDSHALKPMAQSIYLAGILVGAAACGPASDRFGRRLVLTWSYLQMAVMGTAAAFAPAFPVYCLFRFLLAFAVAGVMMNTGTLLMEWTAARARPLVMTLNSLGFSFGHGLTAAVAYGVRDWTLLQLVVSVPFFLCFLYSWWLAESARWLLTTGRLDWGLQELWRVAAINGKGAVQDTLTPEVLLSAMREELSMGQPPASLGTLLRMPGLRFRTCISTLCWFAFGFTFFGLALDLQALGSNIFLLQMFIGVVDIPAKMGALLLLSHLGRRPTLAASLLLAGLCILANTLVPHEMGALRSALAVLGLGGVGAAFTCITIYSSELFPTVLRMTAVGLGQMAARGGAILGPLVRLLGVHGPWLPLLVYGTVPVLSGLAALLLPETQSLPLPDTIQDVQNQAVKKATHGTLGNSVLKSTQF
The following applies: HEK293, human, 8 min, read-out: INH.
Description: Inhibition of URAT1 in human HEK293 cells assessed as inhibition of uric acid uptake at 100 nM incubated for 8 mins by Microbeta scintillation counting analysis

Assay [2] concerns the target T1, Solute carrier family 22 member 12. As to conditions: HEK293, human, 8 min, read-out: INH. The source holds these as a separate data set.
The target is the same in assay [3]. The following applies: HEK293, human, 8 min, read-out: INH. This is another data set of the same source.
Description: Inhibition of URAT1 in human HEK293 cells assessed as inhibition of uric acid uptake at 1000 nM incubated for 8 mins by Microbeta scintillation counting analysis
In another assay the target is T2, Bile acid receptor (Homo sapiens, UniProt Q96RI1).
T2 sequence (Q96RI1 whole entry): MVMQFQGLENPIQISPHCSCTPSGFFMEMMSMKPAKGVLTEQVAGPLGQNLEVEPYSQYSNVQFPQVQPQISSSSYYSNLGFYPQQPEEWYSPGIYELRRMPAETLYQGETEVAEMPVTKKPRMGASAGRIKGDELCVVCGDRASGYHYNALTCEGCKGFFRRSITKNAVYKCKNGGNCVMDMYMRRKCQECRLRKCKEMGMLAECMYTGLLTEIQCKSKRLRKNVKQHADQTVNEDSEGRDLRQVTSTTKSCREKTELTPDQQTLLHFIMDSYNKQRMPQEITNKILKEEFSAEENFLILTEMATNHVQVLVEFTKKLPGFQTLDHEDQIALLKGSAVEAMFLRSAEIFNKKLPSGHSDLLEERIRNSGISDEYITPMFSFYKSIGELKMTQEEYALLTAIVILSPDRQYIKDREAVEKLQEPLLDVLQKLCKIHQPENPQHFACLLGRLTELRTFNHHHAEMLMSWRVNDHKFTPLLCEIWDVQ
Put plainly: Agonist activity at FXR (unknown origin) expressed in human HepG2 cells co-transfected with human RXR incubated for 24 hrs by cell-based luciferase transactivation assay.

Take `CCc1oc2ccccc2c1C(=O)c1ccc(OCc2cccc(C(=O)O)c2)cc1`: the inhibition at 0.1 µM in assay [1] was found to be 1%. Also, in assay [2], the inhibition at 0.3 µM came out at 3%. Moreover, the inhibition at 1 µM in assay [3] is 12%. Further, the concentration giving a half-maximal response (EC50) on Bile acid receptor is 15.6 µM.

With `CCc1oc2ccccc2c1C(=O)c1cc(Br)c(OCc2ccc(C(=O)O)cc2)c(Br)c1`, in assay [1], the inhibition at 0.1 µM was 1%. Besides, in assay [2], the inhibition at 0.3 µM was 8%. In addition, in assay [3], the inhibition at 1 µM amounted to 23%. The same molecule registered an EC50 on Bile acid receptor of 10.3 µM.

As to `CCc1oc2ccccc2c1C(=O)c1cc(Br)c(O)c(Br)c1` [BENZBROMARONE], the inhibition at 0.1 µM in assay [1] was found to be 12%. Besides, the inhibition at 0.3 µM in assay [2] is 31%. In assay [3], the inhibition at 1 µM worked out at 72%.

Take `CCc1oc2ccccc2c1C(=O)c1cc(Br)c(OCCCC(=O)O)c(Br)c1`: in assay [1], the inhibition at 0.1 µM came out at 6%. The inhibition at 0.3 µM in assay [2] is 23%. Also, the inhibition at 1 µM in assay [3] is 45%.

`CCc1oc2ccccc2c1C(=O)c1cc(Br)c(OCc2cccc(OCC(=O)O)c2)c(Br)c1`: the inhibition at 0.1 µM in assay [1] was 3%. Moreover, the inhibition at 0.3 µM in assay [2] came out at 18%. In addition, the inhibition at 1 µM in assay [3] is 31%. Besides, the EC50 at Bile acid receptor is 17.8 µM.
